Measured values from US20110028566A1, “COMPOSITIONS AND PRODUCTS CONTAINING CYCLOALIPHATIC DIOL ANTIMICROBIAL AGENTS AND METHODS OF USING THE COMPOSITIONS AND PRODUCTS” (EASTMAN CHEMICAL COMPANY, priority 2009, published 2011).
Where “and” joins values, the source holds several entries; their conditions need not be identical. Equal entries are not always repeated.

Legend:
[1] = system: Pseudomonas aeruginosa ATCC 27853; experiment: MIC determination and synergy testing (Kull synergy index), microplate; format: cell-based; details: for QA, MIC of CHDM alone: plate 169E (CG series)
Procedure, shortened: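 Broth microdilution in TSB (pH 7.3) for bacteria or SDB (pH 5.6) for C. albicans, 1:1.3333 serial dilutions covering one log in nine steps, agents alone or blended for synergy; triplicate wells inoculated to ~10^6 CFU/mL bacteria or ~10^5 CFU/mL yeast; uninoculated wells correct compound turbidity.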

[2] = system: Corynebacterium xerosis ATCC #373; experiment: Synergy testing in brain heart infusion media, 96-well plates; format: cell-based; details: for % CHDM: relative to CHDM alone; for SI: synergy index
Description: MICs were determined using a high-throughput microplate method. Individual antimicrobial agents were added to TSB (pH 7.3) for bacterial testing or SDB (pH 5.6) for fungal testing at the highest concentration to be tested. A serial dilution series was prepared at a dilution ratio of 1:1.3333 such that a one log range was covered in nine dilutions. Two-hundred microliters of the diluted antimicrobial agents were dispensed into four wells each of a sterile, 96-well, flat-bottom microplate (Nalge Nunc International). Four additional wells of the highest concentration were dispensed to serve as uninoculated high-level controls. Eight additional wells containing only broth medium were also prepared, four to serve as negative controls and four as positive controls. Three wells of each antimicrobial agent dilution were inoculated with one of the test strains in Table 7. The final well of each antimicrobial agent dilution was left uninoculated to serve as a control (and means of compensating) for any absorbance/turbidity due to the test compounds.
The individual antimicrobial agents listed in Table 8 were tested in combination with CHDM. The MIC values determined in the individual antimicrobial agent testing described above were used to establish a target MIC. In each experiment, MIC values for the individual antimicrobial agents and CHDM were determined in order to eliminate any variability due to comparison of data from different dates. Testing was done over a range of four concentrations separated by a factor of 1.3333 as described above. The four concentrations were the target MIC plus one dilution level higher and two dilution levels lower than the target. Combinations of antimicrobial agents and CHDM were made at 50% of the target MIC values and the higher and lower individual levels. Additionally, 50% level series were also tested with the antimicrobial agent or CHDM at one dilution level lower than the target level. The method of Kull et. al. (F. C. Kull et al., Applied Microbiology, 9, p 538-541 (1961)) was used to determine whether there was synergistic activity between CHDM and each antimicrobial agent for inhibition of each of the five microbes. MICs for the individually-tested CHDM and antimicrobial agent, as well as the concentration of CHDM and antimicrobial agent in the combination MIC were used to calculate a synergy index (SI) according to the equation: […]
where Qa and Qb are the minimum inhibitory concentrations for CHDM and a antimicrobial agent, respectively, when tested independently, and QA and QB are the concentrations of CHDM and a antimicrobial agent, respectively, in combination at an inhibitory concentration. Accordingly, synergy is defined as a SI less than one.
Experiments were also conducted using Corynebacterium xerosis, which is a bacterium known to cause body odor. […] The Corynebacterium xerosis bacterium used in this example was ATCC #373. The seed culture was grown in brain heart infusion medium. Assays were performed in brain heart infusion media in 96-well plates as described in Example 2. The brain heart infusion medium was at a pH of about 7.4. All growth was conducted at 37° C.

[3] = P. aeruginosa, plate 126E, day 2, PE and CHDM

OCC1CCC(CO)CC1 (stereo not shown) [1,4-CHDM, 1,4-cyclohexanedimethanol]
QA/a ([1]; CHDM alone (QA) or in combination with BA:DHA (a), plate 149E, day 1): 1.31
QA/a ([1]; CHDM alone (QA) or in combination with BA:DHA (a), plate 149E, day 2): 1.75
QA/a ([1]; CHDM alone (QA) or in combination with DMDM hydantoin (a), plate 150E, day 1): 1.31
QA/a ([1]; CHDM: MIC alone (QA) or conc. in combination with CP (a), plate 148E, day 1): 1.31
QA/a ([1]; CHDM: MIC alone (QA) or conc. in combination with MIT (a), plate 147E, day 1): 1.31
QA/a ([1]; CHDM: MIC alone (QA) or conc. in combination with MIT (a), plate 147E, day 2): 2.33
QA/a ([1]; CHDM: MIC alone (QA) or conc. in combination with MIT (a), plate 210E, day 1): 1.75
QA/a ([1]; CHDM: MIC alone (QA) or conc. in combination with MIT (a), plate 210E, day 2): 1.75
QA/a ([1]; CHDM: MIC alone (QA) or conc. in combination with MIT (a), plate 249E, day 1): 1.80
QA/a ([1]; CHDM: MIC alone (QA) or conc. in combination with MIT (a), plate 249E, day 2): 1.80
QA/a ([1]; CHDM: MIC alone (QA) or conc. in combination with MP (a), plate 146E, day 1): 1.31
QA, MIC of CHDM alone ([1]; P. aeruginosa, day 1 of incubation): 1.31 weight percent
QA, MIC of CHDM alone ([1]; P. aeruginosa, day 2 of incubation): 1.75 weight percent
QA, MIC of CHDM alone ([1]; P. aeruginosa, day 3 of incubation): 1.75 weight percent
QA/a: concentration of CHDM (MIC alone, or in the combination at an inhibitory concentration) [1, 3]: 1.75 weight percent
SI (synergy index) [1, 3]: 1.00
QA/a: concentration of CHDM alone (QA, MIC) ([1]; Table 43, P. aeruginosa, Day 1): 1.31 weight percent and 1.35 weight percent
QA/a: concentration of CHDM alone (QA, MIC) ([1]; Table 43, P. aeruginosa, Day 2): 1.75 weight percent and 1.80 weight percent and 1.35 weight percent
QA/a: concentration of CHDM alone (QA, MIC) ([1]; Table 45, P. aeruginosa, Day 1): 1.31 weight percent and 1.35 weight percent and 1.80 weight percent
QA/a: concentration of CHDM alone (QA, MIC) ([1]; Table 45, P. aeruginosa, Day 2): 2.33 weight percent and 1.75 weight percent and 1.80 weight percent
QA/a: concentration of CHDM alone (QA, MIC) ([1]; Table 48, P. aeruginosa, Day 1): 1.75 weight percent and 1.31 weight percent
QA/a: concentration of CHDM alone (QA, MIC) ([1]; Table 48, P. aeruginosa, Day 2): 2.33 weight percent and 1.75 weight percent
% CHDM ([2]; Day 2, CHDM with EHG): 100.0%
% CHDM ([2]; Day 2, CHDM with TRI): 100.0%
QA/a (CHDM) ([2]; Day 2, inhibitory concentration of CHDM alone or in combination with EHG, plate EX194-195-EHG-Syn1): 2.110
QA/a (CHDM) ([2]; Day 2, inhibitory concentration of CHDM alone or in combination with TRI, plate EX194-195-TRI-Syn1): 2.110
SI ([2]; Day 2, CHDM with EHG): 1.00
SI ([2]; Day 2, CHDM with TRI): 1.00
% CHDM ([2]; Day 3, CHDM with EHG): 100.0%
% CHDM ([2]; Day 3, CHDM with TRI): 100.0%
QA/a (CHDM) ([2]; Day 3, inhibitory concentration of CHDM alone or in combination with EHG, plate EX194-195-EHG-Syn1): 2.110
QA/a (CHDM) ([2]; Day 3, inhibitory concentration of CHDM alone or in combination with TRI, plate EX194-195-TRI-Syn1): 2.110
SI ([2]; Day 3, CHDM with EHG): 1.00
SI ([2]; Day 3, CHDM with TRI): 1.00
